In ChEMBL document CHEMBL1155237, “Selective inhibitors of the mutant B-Raf pathway: discovery of a potent and orally bioavailable aminoisoquinoline” (J Med Chem, 2009) one finds Activity data, which are given here for one compound.

Common to all, as to parameters: scale not given: the % may be the effect or the level left
Experiment [1] deals with Ephrin type-B receptor 1 (Homo sapiens) (UniProt P54762). Briefly: Inhibition of EPHB1 assessed as enzyme activity at 1 uM relative to untreated control.
In experiment [2] the target is Glycogen synthase kinase-3 beta (Homo sapiens) (UniProt P49841). Nature of the experiment: Inhibition of GSK3B assessed as enzyme activity at 1 uM relative to untreated control.
Sequence of Glycogen synthase kinase-3 beta (Homo sapiens) (P49841 whole entry, looked up): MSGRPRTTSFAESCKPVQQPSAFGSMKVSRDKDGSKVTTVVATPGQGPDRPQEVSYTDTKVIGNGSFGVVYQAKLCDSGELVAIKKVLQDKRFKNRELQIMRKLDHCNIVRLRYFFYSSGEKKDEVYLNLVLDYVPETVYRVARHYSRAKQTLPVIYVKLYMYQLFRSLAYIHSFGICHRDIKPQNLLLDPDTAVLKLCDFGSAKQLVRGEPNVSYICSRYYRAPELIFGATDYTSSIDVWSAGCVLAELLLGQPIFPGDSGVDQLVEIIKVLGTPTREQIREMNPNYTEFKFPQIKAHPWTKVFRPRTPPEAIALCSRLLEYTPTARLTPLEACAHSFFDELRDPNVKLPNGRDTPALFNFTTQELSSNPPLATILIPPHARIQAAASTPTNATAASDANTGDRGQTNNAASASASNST
The target of experiment [3] is Inhibitor of nuclear factor kappa-B kinase subunit beta (Homo sapiens) (UniProt O14920). Briefly: Inhibition of IKK-beta assessed as enzyme activity at 1 uM relative to untreated control.
Sequence of Inhibitor of nuclear factor kappa-B kinase subunit beta (Homo sapiens) (O14920 whole entry, the tested form may be a part): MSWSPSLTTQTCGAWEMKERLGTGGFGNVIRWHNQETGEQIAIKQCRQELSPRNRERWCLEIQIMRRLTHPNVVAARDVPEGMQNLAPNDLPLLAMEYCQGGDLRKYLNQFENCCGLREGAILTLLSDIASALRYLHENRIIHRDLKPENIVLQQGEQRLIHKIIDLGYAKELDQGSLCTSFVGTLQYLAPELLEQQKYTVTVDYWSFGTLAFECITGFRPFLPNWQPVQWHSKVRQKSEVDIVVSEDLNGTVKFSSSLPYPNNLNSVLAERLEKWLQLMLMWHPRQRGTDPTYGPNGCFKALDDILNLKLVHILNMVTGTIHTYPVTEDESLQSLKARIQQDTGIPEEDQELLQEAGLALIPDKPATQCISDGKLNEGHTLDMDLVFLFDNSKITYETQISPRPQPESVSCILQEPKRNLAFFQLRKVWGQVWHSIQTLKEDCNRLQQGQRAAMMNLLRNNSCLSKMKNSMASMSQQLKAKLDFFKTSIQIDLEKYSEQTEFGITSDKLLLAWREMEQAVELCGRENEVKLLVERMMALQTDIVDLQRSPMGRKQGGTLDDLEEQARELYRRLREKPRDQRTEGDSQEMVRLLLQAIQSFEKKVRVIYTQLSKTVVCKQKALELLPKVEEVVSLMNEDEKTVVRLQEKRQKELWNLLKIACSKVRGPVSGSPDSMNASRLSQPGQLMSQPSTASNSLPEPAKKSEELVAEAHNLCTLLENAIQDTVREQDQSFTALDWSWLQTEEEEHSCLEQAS
The target in experiment [4] is Ankyrin repeat and protein kinase domain-containing protein 1 (Homo sapiens) (UniProt Q8NFD2). Briefly: Inhibition of ANKK1 assessed as enzyme activity at 1 uM relative to untreated control.
Sequence of Ankyrin repeat and protein kinase domain-containing protein 1 (Homo sapiens) (Q8NFD2 whole entry, the tested form may be a part): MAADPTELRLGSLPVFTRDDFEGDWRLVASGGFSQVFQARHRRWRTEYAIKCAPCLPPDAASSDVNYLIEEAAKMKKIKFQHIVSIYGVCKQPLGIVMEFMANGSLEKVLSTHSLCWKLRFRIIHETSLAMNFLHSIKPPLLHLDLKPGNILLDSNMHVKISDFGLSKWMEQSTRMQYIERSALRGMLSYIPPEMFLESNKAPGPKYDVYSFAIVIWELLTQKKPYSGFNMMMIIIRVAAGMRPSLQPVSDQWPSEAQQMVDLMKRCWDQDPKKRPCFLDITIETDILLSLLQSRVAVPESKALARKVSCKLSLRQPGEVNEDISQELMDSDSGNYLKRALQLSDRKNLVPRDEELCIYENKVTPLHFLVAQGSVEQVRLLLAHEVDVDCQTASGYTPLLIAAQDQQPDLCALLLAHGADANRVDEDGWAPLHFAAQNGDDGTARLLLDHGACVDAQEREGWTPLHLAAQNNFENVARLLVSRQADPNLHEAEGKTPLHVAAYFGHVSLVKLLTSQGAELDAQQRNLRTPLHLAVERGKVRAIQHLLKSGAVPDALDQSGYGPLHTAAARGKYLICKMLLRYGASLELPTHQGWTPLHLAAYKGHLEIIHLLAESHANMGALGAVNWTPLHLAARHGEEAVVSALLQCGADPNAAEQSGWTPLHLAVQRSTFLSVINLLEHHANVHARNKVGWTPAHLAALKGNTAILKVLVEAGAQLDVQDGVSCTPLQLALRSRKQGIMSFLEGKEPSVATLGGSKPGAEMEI
The target in experiment [5] is Mitogen-activated protein kinase kinase kinase 11 (Homo sapiens) (UniProt Q16584). Nature of the experiment: Inhibition of MLK3 assessed as enzyme activity at 1 uM relative to untreated control.
The target in experiment [6] is Mitogen-activated protein kinase 10 (Homo sapiens) (UniProt P53779). Briefly: Inhibition of JNK3 assessed as enzyme activity at 1 uM relative to untreated control.
Sequence of Mitogen-activated protein kinase 10 (Homo sapiens) (P53779 whole entry): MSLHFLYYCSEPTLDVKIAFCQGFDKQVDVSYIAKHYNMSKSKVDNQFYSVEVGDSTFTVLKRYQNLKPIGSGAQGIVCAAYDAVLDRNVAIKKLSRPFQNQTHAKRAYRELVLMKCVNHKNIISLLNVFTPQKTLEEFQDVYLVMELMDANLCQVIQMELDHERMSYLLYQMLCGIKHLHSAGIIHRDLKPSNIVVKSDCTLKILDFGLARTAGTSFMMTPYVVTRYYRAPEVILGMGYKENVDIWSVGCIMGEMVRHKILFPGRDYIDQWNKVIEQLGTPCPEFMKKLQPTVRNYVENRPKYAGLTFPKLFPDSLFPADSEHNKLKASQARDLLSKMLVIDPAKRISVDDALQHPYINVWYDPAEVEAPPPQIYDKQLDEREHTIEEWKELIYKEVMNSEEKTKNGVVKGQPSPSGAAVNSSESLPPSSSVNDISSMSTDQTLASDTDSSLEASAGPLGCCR
Experiment [7] addresses Serine/threonine-protein kinase ULK2 (Homo sapiens) (UniProt Q8IYT8). Briefly: Inhibition of ULK2 assessed as enzyme activity at 1 uM relative to untreated control.
Experiment [8] has as its target Mitogen-activated protein kinase kinase kinase 3 (Homo sapiens) (UniProt Q99759). Nature of the experiment: Inhibition of MAP3K3 assessed as enzyme activity at 1 uM relative to untreated control.
In experiment [9] the target is Interleukin-1 receptor-associated kinase 3 (Homo sapiens) (UniProt Q9Y616). Nature of the experiment: Inhibition of IRAK3 assessed as enzyme activity at 1 uM relative to untreated control.
Sequence of Interleukin-1 receptor-associated kinase 3 (Homo sapiens) (Q9Y616 whole entry): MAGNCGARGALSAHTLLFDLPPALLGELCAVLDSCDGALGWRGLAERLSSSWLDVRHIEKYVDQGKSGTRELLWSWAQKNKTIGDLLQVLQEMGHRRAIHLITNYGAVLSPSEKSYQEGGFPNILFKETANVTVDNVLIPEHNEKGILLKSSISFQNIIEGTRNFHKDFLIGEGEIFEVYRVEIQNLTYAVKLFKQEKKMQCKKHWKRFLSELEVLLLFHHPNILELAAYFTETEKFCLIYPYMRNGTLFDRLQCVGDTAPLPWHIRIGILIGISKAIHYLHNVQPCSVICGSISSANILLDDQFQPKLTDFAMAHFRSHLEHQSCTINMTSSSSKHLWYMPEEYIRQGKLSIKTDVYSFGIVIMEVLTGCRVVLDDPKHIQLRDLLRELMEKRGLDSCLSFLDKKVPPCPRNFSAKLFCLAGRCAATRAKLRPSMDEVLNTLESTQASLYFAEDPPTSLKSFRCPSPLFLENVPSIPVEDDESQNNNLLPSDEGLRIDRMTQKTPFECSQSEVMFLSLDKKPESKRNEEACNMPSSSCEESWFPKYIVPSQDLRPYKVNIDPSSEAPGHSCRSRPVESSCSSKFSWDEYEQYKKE
Experiment [10] concerns the target Calcium/calmodulin-dependent protein kinase type II subunit gamma (Homo sapiens) (UniProt Q13555). Briefly: Inhibition of CAMK2G assessed as enzyme activity at 1 uM relative to untreated control.

Sequence of Mitogen-activated protein kinase kinase kinase 3 (Homo sapiens) (Q99759 whole entry): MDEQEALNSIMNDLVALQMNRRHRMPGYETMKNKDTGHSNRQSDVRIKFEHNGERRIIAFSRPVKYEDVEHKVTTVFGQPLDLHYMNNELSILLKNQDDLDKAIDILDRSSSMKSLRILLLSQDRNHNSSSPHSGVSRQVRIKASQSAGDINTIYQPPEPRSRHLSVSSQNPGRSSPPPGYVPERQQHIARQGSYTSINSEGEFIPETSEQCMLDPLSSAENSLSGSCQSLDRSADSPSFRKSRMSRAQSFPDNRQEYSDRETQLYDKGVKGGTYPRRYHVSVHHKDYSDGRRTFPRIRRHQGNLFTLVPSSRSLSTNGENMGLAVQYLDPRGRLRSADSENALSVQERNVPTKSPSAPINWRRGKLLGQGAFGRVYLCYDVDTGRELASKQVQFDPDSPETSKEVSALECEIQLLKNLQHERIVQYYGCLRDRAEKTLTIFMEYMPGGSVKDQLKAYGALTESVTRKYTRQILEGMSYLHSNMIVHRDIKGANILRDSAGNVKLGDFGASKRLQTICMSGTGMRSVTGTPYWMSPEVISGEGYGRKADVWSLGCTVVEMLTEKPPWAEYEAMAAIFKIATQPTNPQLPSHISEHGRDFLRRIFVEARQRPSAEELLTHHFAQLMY
Sequence of Serine/threonine-protein kinase ULK2 (Homo sapiens) (Q8IYT8 whole entry): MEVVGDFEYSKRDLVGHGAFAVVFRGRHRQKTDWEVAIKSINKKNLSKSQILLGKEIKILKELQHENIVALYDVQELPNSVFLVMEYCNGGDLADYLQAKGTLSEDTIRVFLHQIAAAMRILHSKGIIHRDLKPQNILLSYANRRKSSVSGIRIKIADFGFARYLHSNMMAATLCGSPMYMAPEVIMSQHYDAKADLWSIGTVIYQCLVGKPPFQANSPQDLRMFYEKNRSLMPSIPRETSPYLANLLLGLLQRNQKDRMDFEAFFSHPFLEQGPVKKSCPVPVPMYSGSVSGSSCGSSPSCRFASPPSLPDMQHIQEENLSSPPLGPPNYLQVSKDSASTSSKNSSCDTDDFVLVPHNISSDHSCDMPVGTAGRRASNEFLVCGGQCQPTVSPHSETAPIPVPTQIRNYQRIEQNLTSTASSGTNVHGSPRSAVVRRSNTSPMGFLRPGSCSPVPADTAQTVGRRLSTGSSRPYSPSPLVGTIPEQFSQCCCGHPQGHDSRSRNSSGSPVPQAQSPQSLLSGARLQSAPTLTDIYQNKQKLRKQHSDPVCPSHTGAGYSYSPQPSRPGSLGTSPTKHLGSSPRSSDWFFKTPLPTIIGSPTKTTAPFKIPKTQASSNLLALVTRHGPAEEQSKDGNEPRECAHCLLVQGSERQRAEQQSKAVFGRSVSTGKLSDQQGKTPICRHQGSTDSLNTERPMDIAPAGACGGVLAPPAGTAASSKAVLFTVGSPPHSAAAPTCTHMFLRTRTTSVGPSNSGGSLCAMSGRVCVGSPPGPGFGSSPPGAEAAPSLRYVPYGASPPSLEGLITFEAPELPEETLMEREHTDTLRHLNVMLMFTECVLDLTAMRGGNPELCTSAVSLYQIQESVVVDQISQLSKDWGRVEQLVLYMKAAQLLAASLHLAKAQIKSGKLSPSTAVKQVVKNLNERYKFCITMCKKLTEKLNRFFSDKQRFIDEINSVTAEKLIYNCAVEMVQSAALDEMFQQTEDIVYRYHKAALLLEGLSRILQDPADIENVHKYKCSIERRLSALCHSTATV

As to `Cc1ccc2c(Nc3ccc(Cl)cc3)nccc2c1Nc1ncccc1-c1ncnc2[nH]cnc12.Cl.Cl.Cl`, the Activity in experiment [1] was determined as 2%; in [2], 100%; in [3], 100%; in experiment [4] it was 100%; in experiment [5] it was 100%; in experiment [6], 86%. For the same compound, the Activity in experiment [7] stood at 100%; in experiment [8] it was 40%; in experiment [9] it was 81%; in experiment [10] it was 98%.
